Laboratory results from the NIST ThermoML archive (doi:10.1021/acs.jced.5b00537).
Numbers after ± are expanded uncertainties.

Experiment: xn = mol fraction of the nth substance listed
Details: 100 kPa, Liquid; for viscosity: Cone and plate viscometry; for mass density: Vibrating tube method

For `CCC(C)(C)O` [2-methylbutan-2-ol] + CC(C)CO, which viscosity (293.15 K, x1 = 0.101) is on record?
Its viscosity is 4.697 ± 0.2 mPa·s.

What about the viscosity (293.15 K, x1 = 0.2) of the same molecule?
Its viscosity is 5.166 ± 0.2 mPa·s.

What about the viscosity (293.15 K, x1 = 0.301) of the same molecule?
The viscosity was 5.487 ± 0.2 mPa·s.

What about the viscosity (293.15 K, x1 = 0.4) of the same molecule?
The viscosity was 5.819 ± 0.2 mPa·s.

And the viscosity (293.15 K, x1 = 0.5)?
The viscosity was 6.094 ± 0.2 mPa·s.

And the viscosity (293.15 K, x1 = 0.599)?
Its viscosity is 6.075 ± 0.2 mPa·s.

And the viscosity (293.15 K, x1 = 0.7)?
The viscosity was 5.951 ± 0.2 mPa·s.

What about the viscosity (293.15 K, x1 = 0.8) of the same molecule?
The viscosity was 5.518 ± 0.2 mPa·s.

What about the viscosity (293.15 K, x1 = 0.9) of the same molecule?
Its viscosity is 5.081 ± 0.2 mPa·s.

What about the viscosity (293.15 K, x1 = 1) of the same molecule?
The viscosity was 4.596 ± 0.2 mPa·s.

And the mass density (293.15 K, x1 = 0.101)?
The mass density was 803.58 ± 0.61 kg/m3.

What about the mass density (293.15 K, x1 = 0.2) of the same molecule?
The mass density was 805.09 ± 0.61 kg/m3.

What about the mass density (293.15 K, x1 = 0.301) of the same molecule?
The mass density was 806.61 ± 0.61 kg/m3.

What about the mass density (293.15 K, x1 = 0.4) of the same molecule?
The mass density was 807.99 ± 0.61 kg/m3.

What about the mass density (293.15 K, x1 = 0.5) of the same molecule?
The mass density was 809.31 ± 0.61 kg/m3.

What about the mass density (293.15 K, x1 = 0.599) of the same molecule?
Its mass density is 810.29 ± 0.61 kg/m3.

And the mass density (293.15 K, x1 = 0.7)?
The mass density was 810.83 ± 0.61 kg/m3.

What about the mass density (293.15 K, x1 = 0.8) of the same molecule?
Its mass density is 810.82 ± 0.61 kg/m3.

And the mass density (293.15 K, x1 = 0.9)?
Its mass density is 810.12 ± 0.61 kg/m3.

What about the mass density (293.15 K, x1 = 1) of the same molecule?
The mass density was 808.77 ± 0.61 kg/m3.

And the viscosity (303.15 K, x1 = 0.101)?
Its viscosity is 3.244 ± 0.2 mPa·s.

And the viscosity (303.15 K, x1 = 0.2)?
The viscosity was 3.387 ± 0.2 mPa·s.

What about the viscosity (303.15 K, x1 = 0.301) of the same molecule?
The viscosity was 3.616 ± 0.2 mPa·s.

And the viscosity (303.15 K, x1 = 0.4)?
Its viscosity is 3.726 ± 0.2 mPa·s.

What about the viscosity (303.15 K, x1 = 0.5) of the same molecule?
Its viscosity is 3.775 ± 0.2 mPa·s.

What about the viscosity (303.15 K, x1 = 0.599) of the same molecule?
The viscosity was 3.715 ± 0.2 mPa·s.

What about the viscosity (303.15 K, x1 = 0.7) of the same molecule?
Its viscosity is 3.597 ± 0.2 mPa·s.

And the viscosity (303.15 K, x1 = 0.8)?
Its viscosity is 3.386 ± 0.2 mPa·s.

What about the viscosity (303.15 K, x1 = 0.9) of the same molecule?
The viscosity was 3.187 ± 0.2 mPa·s.

What about the viscosity (303.15 K, x1 = 1) of the same molecule?
The viscosity was 2.983 ± 0.2 mPa·s.

What about the mass density (303.15 K, x1 = 0.101) of the same molecule?
Its mass density is 795.96 ± 0.61 kg/m3.

And the mass density (303.15 K, x1 = 0.2)?
The mass density was 797.22 ± 0.61 kg/m3.

And the mass density (303.15 K, x1 = 0.301)?
Its mass density is 798.63 ± 0.61 kg/m3.

What about the mass density (303.15 K, x1 = 0.4) of the same molecule?
Its mass density is 799.87 ± 0.61 kg/m3.

And the mass density (303.15 K, x1 = 0.5)?
Its mass density is 800.87 ± 0.61 kg/m3.

What about the mass density (303.15 K, x1 = 0.599) of the same molecule?
The mass density was 801.55 ± 0.61 kg/m3.

And the mass density (303.15 K, x1 = 0.7)?
Its mass density is 801.84 ± 0.62 kg/m3.

And the mass density (303.15 K, x1 = 0.8)?
The mass density was 801.61 ± 0.62 kg/m3.

What about the mass density (303.15 K, x1 = 0.9) of the same molecule?
Its mass density is 800.89 ± 0.62 kg/m3.

What about the mass density (303.15 K, x1 = 1) of the same molecule?
The mass density was 799.74 ± 0.62 kg/m3.

What about the viscosity (313.15 K, x1 = 0.101) of the same molecule?
Its viscosity is 2.392 ± 0.2 mPa·s.

What about the viscosity (313.15 K, x1 = 0.2) of the same molecule?
Its viscosity is 2.445 ± 0.2 mPa·s.

And the viscosity (313.15 K, x1 = 0.301)?
Its viscosity is 2.526 ± 0.2 mPa·s.

What about the viscosity (313.15 K, x1 = 0.4) of the same molecule?
The viscosity was 2.552 ± 0.2 mPa·s.

What about the viscosity (313.15 K, x1 = 0.5) of the same molecule?
The viscosity was 2.539 ± 0.2 mPa·s.

What about the viscosity (313.15 K, x1 = 0.599) of the same molecule?
Its viscosity is 2.46 ± 0.2 mPa·s.

And the viscosity (313.15 K, x1 = 0.7)?
The viscosity was 2.365 ± 0.2 mPa·s.

And the viscosity (313.15 K, x1 = 0.8)?
The viscosity was 2.287 ± 0.2 mPa·s.

What about the viscosity (313.15 K, x1 = 0.9) of the same molecule?
The viscosity was 2.204 ± 0.2 mPa·s.

And the viscosity (313.15 K, x1 = 1)?
Its viscosity is 2.078 ± 0.2 mPa·s.

What about the mass density (313.15 K, x1 = 0.101) of the same molecule?
The mass density was 788 ± 0.61 kg/m3.

What about the mass density (313.15 K, x1 = 0.2) of the same molecule?
Its mass density is 789.04 ± 0.61 kg/m3.

What about the mass density (313.15 K, x1 = 0.301) of the same molecule?
The mass density was 790.24 ± 0.61 kg/m3.

What about the mass density (313.15 K, x1 = 0.4) of the same molecule?
Its mass density is 791.21 ± 0.62 kg/m3.

And the mass density (313.15 K, x1 = 0.5)?
The mass density was 791.89 ± 0.62 kg/m3.

What about the mass density (313.15 K, x1 = 0.599) of the same molecule?
Its mass density is 792.32 ± 0.62 kg/m3.

And the mass density (313.15 K, x1 = 0.7)?
Its mass density is 792.36 ± 0.62 kg/m3.

What about the mass density (313.15 K, x1 = 0.8) of the same molecule?
The mass density was 792.06 ± 0.62 kg/m3.

What about the mass density (313.15 K, x1 = 0.9) of the same molecule?
Its mass density is 791.35 ± 0.62 kg/m3.

And the mass density (313.15 K, x1 = 1)?
Its mass density is 790.35 ± 0.62 kg/m3.

And the viscosity (323.15 K, x1 = 0.101)?
Its viscosity is 1.749 ± 0.2 mPa·s.

What about the viscosity (323.15 K, x1 = 0.2) of the same molecule?
The viscosity was 1.776 ± 0.2 mPa·s.

What about the viscosity (323.15 K, x1 = 0.301) of the same molecule?
Its viscosity is 1.8 ± 0.2 mPa·s.

What about the viscosity (323.15 K, x1 = 0.4) of the same molecule?
Its viscosity is 1.792 ± 0.2 mPa·s.

What about the viscosity (323.15 K, x1 = 0.5) of the same molecule?
The viscosity was 1.756 ± 0.2 mPa·s.

And the viscosity (323.15 K, x1 = 0.599)?
The viscosity was 1.721 ± 0.2 mPa·s.

And the viscosity (323.15 K, x1 = 0.7)?
The viscosity was 1.664 ± 0.2 mPa·s.

What about the viscosity (323.15 K, x1 = 0.8) of the same molecule?
Its viscosity is 1.606 ± 0.2 mPa·s.

And the viscosity (323.15 K, x1 = 0.9)?
Its viscosity is 1.549 ± 0.2 mPa·s.

And the viscosity (323.15 K, x1 = 1)?
The viscosity was 1.494 ± 0.2 mPa·s.

And the mass density (323.15 K, x1 = 0.101)?
The mass density was 779.8 ± 0.62 kg/m3.

What about the mass density (323.15 K, x1 = 0.2) of the same molecule?
The mass density was 780.62 ± 0.62 kg/m3.

And the mass density (323.15 K, x1 = 0.301)?
The mass density was 781.62 ± 0.62 kg/m3.

What about the mass density (323.15 K, x1 = 0.4) of the same molecule?
The mass density was 782.29 ± 0.62 kg/m3.

And the mass density (323.15 K, x1 = 0.5)?
The mass density was 782.77 ± 0.62 kg/m3.

What about the mass density (323.15 K, x1 = 0.599) of the same molecule?
The mass density was 782.89 ± 0.62 kg/m3.

And the mass density (323.15 K, x1 = 0.7)?
Its mass density is 782.77 ± 0.62 kg/m3.

What about the mass density (323.15 K, x1 = 0.8) of the same molecule?
Its mass density is 782.3 ± 0.62 kg/m3.

What about the mass density (323.15 K, x1 = 0.9) of the same molecule?
Its mass density is 781.58 ± 0.62 kg/m3.

And the mass density (323.15 K, x1 = 1)?
Its mass density is 780.66 ± 0.62 kg/m3.

And the viscosity (333.15 K, x1 = 0.101)?
The viscosity was 1.31 ± 0.2 mPa·s.

What about the viscosity (333.15 K, x1 = 0.2) of the same molecule?
The viscosity was 1.315 ± 0.2 mPa·s.

And the viscosity (333.15 K, x1 = 0.301)?
Its viscosity is 1.329 ± 0.2 mPa·s.

And the viscosity (333.15 K, x1 = 0.4)?
The viscosity was 1.316 ± 0.2 mPa·s.

And the viscosity (333.15 K, x1 = 0.5)?
The viscosity was 1.277 ± 0.2 mPa·s.

And the viscosity (333.15 K, x1 = 0.599)?
Its viscosity is 1.243 ± 0.2 mPa·s.

And the viscosity (333.15 K, x1 = 0.7)?
The viscosity was 1.206 ± 0.2 mPa·s.

And the viscosity (333.15 K, x1 = 0.8)?
The viscosity was 1.164 ± 0.2 mPa·s.

And the viscosity (333.15 K, x1 = 0.9)?
Its viscosity is 1.128 ± 0.2 mPa·s.

And the viscosity (333.15 K, x1 = 1)?
Its viscosity is 1.093 ± 0.2 mPa·s.

What about the mass density (333.15 K, x1 = 0.101) of the same molecule?
The mass density was 771.08 ± 0.62 kg/m3.

And the mass density (333.15 K, x1 = 0.2)?
Its mass density is 771.75 ± 0.62 kg/m3.

And the mass density (333.15 K, x1 = 0.301)?
The mass density was 772.36 ± 0.62 kg/m3.

And the mass density (333.15 K, x1 = 0.4)?
Its mass density is 772.81 ± 0.62 kg/m3.

What about the mass density (333.15 K, x1 = 0.5) of the same molecule?
The mass density was 772.96 ± 0.62 kg/m3.

And the mass density (333.15 K, x1 = 0.599)?
The mass density was 772.93 ± 0.62 kg/m3.

What about the mass density (333.15 K, x1 = 0.7) of the same molecule?
Its mass density is 772.58 ± 0.62 kg/m3.

What about the mass density (333.15 K, x1 = 0.8) of the same molecule?
The mass density was 772.09 ± 0.62 kg/m3.

What about the mass density (333.15 K, x1 = 0.9) of the same molecule?
Its mass density is 771.38 ± 0.62 kg/m3.

And the mass density (333.15 K, x1 = 1)?
The mass density was 770.4 ± 0.62 kg/m3.

And the mass density (343.15 K, x1 = 0.101)?
Its mass density is 762.05 ± 0.62 kg/m3.

What about the mass density (343.15 K, x1 = 0.2) of the same molecule?
The mass density was 762.45 ± 0.62 kg/m3.

And the mass density (343.15 K, x1 = 0.301)?
Its mass density is 762.79 ± 0.62 kg/m3.

What about the mass density (343.15 K, x1 = 0.4) of the same molecule?
The mass density was 762.98 ± 0.62 kg/m3.

What about the mass density (343.15 K, x1 = 0.5) of the same molecule?
The mass density was 762.91 ± 0.62 kg/m3.

What about the mass density (343.15 K, x1 = 0.599) of the same molecule?
Its mass density is 762.66 ± 0.62 kg/m3.

And the mass density (343.15 K, x1 = 0.7)?
Its mass density is 762.18 ± 0.62 kg/m3.

And the mass density (343.15 K, x1 = 0.8)?
The mass density was 761.63 ± 0.62 kg/m3.

And the mass density (343.15 K, x1 = 0.9)?
Its mass density is 760.84 ± 0.62 kg/m3.

What about the mass density (343.15 K, x1 = 1) of the same molecule?
The mass density was 759.8 ± 0.62 kg/m3.

And the mass density (353.15 K, x1 = 1)?
Its mass density is 749.13 ± 1 kg/m3.

What about the mass density (363.15 K, x1 = 1) of the same molecule?
The mass density was 738.77 ± 1 kg/m3.
